# According to patent publication US20190085289A1, “COMPOSITIONS AND METHODS FOR PATHOGEN INACTIVATION OF PLATELETS” (Cerus Corporation, priority 2017, published 2019):
# Columns and labels:
# Assay type in all cases: physicochemical
# [1] = Stability and photoconversion of S-59 in PAS/plasma with platelets and bacteria (HPLC); settings: for % S-59 conversion: after UVA
# Experimental: Another study evaluated 24 hour stability and photoconversion of amotosalen (S-59) in PAS with plasma and platelets, in the presence of bacteria. Two ABO matched platelet units in 100% plasma were pooled, split into two units and InterSol® PAS added (e.g., 65/35). S-59 was added to the test unit at a concentration of 150 but not initially to the control unit. A log culture of K. pneumoniae (˜8 log cfu/mL) was added to the units at a target of ˜60 CFU/unit and the units were incubated in a platelets shaker at 22° C. for approximately 24 hours. At the end of incubation, S-59 was also added to the control unit at the same concentration and both control and test units were subjected to UVA light. Samples were taken pre- and post-UVA illumination for both units bacterial titer assay and HPLC. Post-illumination both units were subjected to a CAD processing step to remove residual amotosalen and photoproducts and stored on a platelet shaker for 7 days to confirm no growth of bacteria.
# [2] = Stability of S-59 in InterSol PAS protected from ambient light (HPLC); settings: for S-59 UV peak area (HPLC) / S-59 concentration (HPLC): 230 μM in InterSol PAS, room temp, protected from light
# Experimental: Additional studies evaluated stability of the S-59 (amotosalen) pathogen inactivation compound formulated in a platelet additive solution (PAS), but protected from ambient light exposure. A 230 μM solution of S-59 was prepared in the commercially available PAS solution InterSol® (Fenwal Inc.) and maintained at room temperature protected from ambient light conditions. HPLC analysis was performed on samples at times listed in Table 2 for both S-59 and photoproducts.
# [3] = Stability and photoconversion of S-59 in 65% PAS/35% plasma with platelets (HPLC); settings: for S-59 UV peak area (HPLC) / S-59 concentration (HPLC): 150 μM in 65% InterSol PAS/35% plasma with platelets
# Experimental: A further study evaluated stability and photoconversion of amotosalen (S-59) in PAS with added plasma, and also containing platelets. S-59 was added at a concentration of 150 μM to 65% InterSol® PAS and 35% plasma a suspended preparation of platelets, and the admixture maintained in a platelet incubator during the study time course. Samples were removed for HPLC analysis at times 0, 5, 21, 29 and 48 hours, and the mixture was then treated with ˜3 J of UVA light at 55 hours with a post-UVA sample also analyzed by HPLC for both S-59 and photoproducts. […] Peak D and Peak E photoproducts were not detected (Table 3).
# [4] = Post-UVA residual S-59 concentration in FCV-spiked platelets (HPLC); settings: for Post-UVA S-59 concentration: UVA ~3 J/cm^2
# Experimental: An additional study was performed to evaluate the level of FCV inactivation with decreasing amounts of S-59 after extended incubation (e.g., pre-incubation) in PAS/Plasma. In this study, platelets in PAS/Plasma (65%/35%) were spiked with a stock of FCV at a 1:100 dilution. The FCV-spiked platelets were then split into 16 separate test units. Each unit was dosed with S-59 at approximately 150 μM, 90 μM, 30 μM or 15 μM concentration. Following the addition of S-59 in one of four dosing groups, the platelet units in each dosing group were incubated for 0, 4, 8 or 24 hr prior to illumination. A control sample was taken from each unit for virus titer determination and HPLC analysis of S-59 concentration pre-UVA treatment, followed by UVA light exposure at ˜3 J/cm^2 for photochemical treatment of the test samples. Following UVA treatment, the control and test samples were evaluated for inactivation of FCV using a standard virological plaque assay.
# HPLC analysis also was performed to determine the amount (e.g., concentration) of S-59 remaining in samples after UVA illumination and photoconversion (Table 10).
smiles,measurement,setting,value
"Cc1oc2c(C)c3oc(=O)cc(C)c3cc2c1COCCN [S-59, 3-(2-aminoethoxymethyl)-2,5,9-trimethylfuro[3,2-g]chromen-7-one]",S-59 concentration stability,"[1]; 24 hour incubation period, control and test units, with K. pneumoniae",stable
same,S-59 concentration,"[1]; Control unit (S-59 added at end of ~24 h incubation), platelets + K. pneumoniae, T_24h, Avg.",149 µM
same,S-59 concentration,"[1]; Control unit (S-59 added at end of ~24 h incubation), T_24h, Replicate 1",144 µM
same,S-59 concentration,"[1]; Control unit (S-59 added at end of ~24 h incubation), T_24h, Replicate 2",153 µM
same,S-59 concentration,"[1]; Control unit (S-59 added at end of ~24 h incubation), T_Post-UVA, Avg.",40 µM
same,S-59 concentration,"[1]; Control unit (S-59 added at end of ~24 h incubation), T_Post-UVA, Replicate 1",43 µM
same,S-59 concentration,"[1]; Control unit (S-59 added at end of ~24 h incubation), T_Post-UVA, Replicate 2",37 µM
same,% S-59 conversion,"[1]; Control unit (S-59 added at end of ~24 h incubation), Avg.",27%
same,% S-59 conversion,"[1]; Control unit (S-59 added at end of ~24 h incubation), Replicate 1",30%
same,% S-59 conversion,"[1]; Control unit (S-59 added at end of ~24 h incubation), Replicate 2",24%
same,S-59 concentration,"[1]; Test unit (S-59 150 added before incubation), PAS/plasma platelets + K. pneumoniae, 22° C., T_0, Avg.",152 µM
same,S-59 concentration,"[1]; Test unit (S-59 added before incubation), platelets + K. pneumoniae, T_0, Replicate 1",149 µM
same,S-59 concentration,"[1]; Test unit (S-59 added before incubation), platelets + K. pneumoniae, T_0, Replicate 2",155 µM
same,S-59 concentration,"[1]; Test unit (S-59 added before incubation), platelets + K. pneumoniae, T_24h, Avg.",153 µM
same,S-59 concentration,"[1]; Test unit (S-59 added before incubation), T_24h, Replicate 1",149 µM
same,S-59 concentration,"[1]; Test unit (S-59 added before incubation), T_24h, Replicate 2",157 µM
same,S-59 concentration,"[1]; Test unit (S-59 added before incubation), T_Post-UVA, Avg.",26 µM
same,S-59 concentration,"[1]; Test unit (S-59 added before incubation), T_Post-UVA, Replicate 1",27 µM
same,S-59 concentration,"[1]; Test unit (S-59 added before incubation), T_Post-UVA, Replicate 2",24 µM
same,% S-59 conversion,"[1]; Test unit (S-59 added before incubation), Avg.",17%
same,% S-59 conversion,"[1]; Test unit (S-59 added before incubation), Replicate 1",18%
same,% S-59 conversion,"[1]; Test unit (S-59 added before incubation), Replicate 2",15%
same,S-59 UV peak area (HPLC),[2]; 5.5 hr,3451.6489
same,S-59 concentration (HPLC),[2]; 5.5 hr,232.74 µM
same,S-59 UV peak area (HPLC),[2]; 21.5 hr,3439.4907
same,S-59 concentration (HPLC),[2]; 21.5 hr,231.93 µM
same,S-59 UV peak area (HPLC),[2]; 28.5 hr,3421.447
same,S-59 concentration (HPLC),[2]; 28.5 hr,230.72 µM
same,S-59 UV peak area (HPLC),[2]; 44 hr,3425.1028
same,S-59 concentration (HPLC),[2]; 44 hr,230.96 µM
same,S-59 UV peak area (HPLC),[2]; 45.5 hr,3399.0142
same,S-59 concentration (HPLC),[2]; 45.5 hr,229.22 µM
same,S-59 UV peak area (HPLC),[2]; 53 hr,3421.4934
same,S-59 concentration (HPLC),[2]; 53 hr,230.72 µM
same,S-59 UV peak area (HPLC),[2]; 77 hr,3446.6414
same,S-59 concentration (HPLC),[2]; 77 hr,232.41 µM
same,S-59 UV peak area (HPLC),[2]; T 0,3393.0647
same,S-59 concentration (HPLC),[2]; T 0,228.82 µM
same,loss of S-59,"[2]; InterSol PAS, protected from ambient light, at 77 hours",no loss
same,S-59 UV peak area (HPLC),"[3]; platelet incubator, 5 hr",1738.331
same,S-59 concentration (HPLC),"[3]; platelet incubator, 5 hr",149.30 µM
same,S-59 UV peak area (HPLC),"[3]; platelet incubator, 21 hr",1739.214
same,S-59 concentration (HPLC),"[3]; platelet incubator, 21 hr",147.81 µM
same,S-59 UV peak area (HPLC),"[3]; platelet incubator, 29 hr",1725.882
same,S-59 concentration (HPLC),"[3]; platelet incubator, 29 hr",148.04 µM
same,S-59 UV peak area (HPLC),"[3]; platelet incubator, 48 hr",1750.513
same,S-59 concentration (HPLC),"[3]; platelet incubator, 48 hr",148.06 µM
same,S-59 UV peak area (HPLC),"[3]; platelet incubator, T 0",1752.513
same,S-59 concentration (HPLC),"[3]; platelet incubator, T 0",148.12 µM
same,S-59 UV peak area (HPLC),[3]; 55 hr post-UVA (~3 J UVA),274.897
same,S-59 concentration (HPLC),[3]; 55 hr post-UVA (~3 J UVA),22.71 µM
same,S-59 remaining in the post-UVA samples,"[3]; 150 μM, 55 hour incubation in PAS/plasma with platelets, then ~3 J UVA",15.3%
same,loss of S-59,"[3]; PAS/plasma/platelets admixture, prior to the UVA treatment at 55 hours",no loss
same,Post-UVA S-59 concentration,"[4]; Input S-59 15 μM, pre-incubation 0 hr",3 µM
same,Post-UVA S-59 concentration,"[4]; Input S-59 15 μM, pre-incubation 4 hr",2 µM
same,Post-UVA S-59 concentration,"[4]; Input S-59 15 μM, pre-incubation 8 hr",2 µM
same,Post-UVA S-59 concentration,"[4]; Input S-59 15 μM, pre-incubation 24 hr",2 µM
same,Post-UVA S-59 concentration,"[4]; Input S-59 30 μM, pre-incubation 0 hr",5 µM
same,Post-UVA S-59 concentration,"[4]; Input S-59 30 μM, pre-incubation 4 hr",2 µM
same,Post-UVA S-59 concentration,"[4]; Input S-59 30 μM, pre-incubation 8 hr",2 µM
same,Post-UVA S-59 concentration,"[4]; Input S-59 30 μM, pre-incubation 24 hr",3 µM
same,Post-UVA S-59 concentration,"[4]; Input S-59 90 μM, pre-incubation 0 hr",14 µM
same,Post-UVA S-59 concentration,"[4]; Input S-59 90 μM, pre-incubation 4 hr",10 µM
same,Post-UVA S-59 concentration,"[4]; Input S-59 90 μM, pre-incubation 8 hr",11 µM
same,Post-UVA S-59 concentration,"[4]; Input S-59 90 μM, pre-incubation 24 hr",9 µM
same,Post-UVA S-59 concentration,"[4]; Input S-59 150 μM, pre-incubation 0 hr",29 µM
same,Post-UVA S-59 concentration,"[4]; Input S-59 150 μM, pre-incubation 4 hr",33 µM
same,Post-UVA S-59 concentration,"[4]; Input S-59 150 μM, pre-incubation 8 hr",22 µM
same,Post-UVA S-59 concentration,"[4]; Input S-59 150 μM, pre-incubation 24 hr",19 µM
same,residual S-59 concentration post-treatment,"[4]; S-59 dosing groups with pre-incubation, levels reached",less than 5 μM
same,residual S-59 concentration,"[4]; conditions giving high levels of inactivation (e.g., >4 logs)",2 µM
